The values below come from patent publication US7186725B2, “Anti-inflammatory compositions and methods” (Genzyme Corporation, priority 2003, dated 2007).

In assay [1] the test system is Distal colitis induced by DNBS. Kind of assay: Inflammatory Bowel Disease: DNBS-induced distal colitis in rats. The format is in vivo. The note with it: rat. As to the method: CM Hogaboam et al., Eur. J. Pharmacol.; 309; 261 (1996) Groups of 3 derived-male, overnight-fasted rats weighing 150±10 g are used. Distal colitis is induced by intra-colonic instillation of 0.5 ml/rat of DNBS (2,4-dinitrobenzene sulfonic acid, 60 mg/ml in ethanol 30%) after which air (2 ml) is gently injected through the cannula to ensure that the solution remains in the colon. […] The animals are sacrificed 24 hours after the final dose of test compound administration and each colon is removed and weighed.

Assay [2] concerns Autoimmune Encephalomyelitis (EAE). As to the kind of experiment: Autoimmune Encephalomyelitis (EAE) model, PLP 139-151 immunized mice. In kind it is in vivo, SJL/J mice.
Assay [3] deals with IL-6. Kind of assay: Cellular assay: Mediator Release, IL-6. The format is cell-based. Conditions: IL-6 release.
In assay [4] the test system is IL-5. As to the kind of experiment: Cellular assay: Mediator Release, IL-5. The format is cell-based. Conditions: IL-5 release.
Assay [5] has as its system NF-κB. As to the kind of experiment: Cellular assay: Transcription Response, NF-κB. In kind it is cell-based.
Assay [6] relates to Interferon-γ. As to the kind of experiment: Cellular assay: Mediator Release, Interferon-γ. In kind it is cell-based.
Assay [7] concerns IL-10. As to the kind of experiment: Cellular assay: Mediator Release, IL-10. The format is cell-based. The note with it: IL-10 release.
Assay [8] concerns Septic Shock, Lipopolysaccharide. Kind of assay: Septic Shock, Lipopolysaccharide plus galactosamine in mice. In kind it is in vivo, C57/BL mice. As for the experimental part:
Groups of 4 or 6 C57/BL mice weighing 18–20g were used. […] The blank control group was only applied 10% cremophor/10% ethanol IP and without LPS challenge. Mortality is recorded every 12 hours after challenge over a 3-day period. Protection of mortality by 50 percent or more (≧50%) indicates significant activity.

For assay [9], the system named is TNF-α. As to the kind of experiment: Cellular assay: Mediator Release, TNF-α. The format is cell-based.
The test system of assay [10] is IL-1β. As to the kind of experiment: Cellular assay: Mediator Release, IL-1β. The format is cell-based. Conditions: IL-1β release.
Assay [11] concerns purified rat T cells. Kind of assay: Concanavalin A activated T-cell proliferation assay ([3H] thymidine uptake). The format is cell-based. Conditions: 96 h, @ 1 mM. As for the experimental part:
Compounds of Formula I (above), based on an ethyl dimethylaminopropylurea (1) parent structure, have been discovered as active agents against a modified Concanavalin A activated T-cell proliferation assay using purified rat T-cells. These cells were incubated for 4 days and pulsed with [^3H] thymidine for the last 16 hrs of incubation. [^3H] Thymidine uptake was measured as the mean counts per minute (cpm) of duplicate experimental cultures. The compounds of the present invention were discovered by screening a compound library. (directed analogs of parent compound 1) using an assay designed to identify inhibitors of Concanavalin A stimulated T-cell proliferation. Normal dermal fibroblasts and kidney epithelial cell toxicity assays were run on active compounds to eliminate non-selective cytotoxic compounds.

[12] abbreviates: 25 mg/kg daily day 1 to 16, FIG. 1.
Setting [13] is: Table 1, read-out: Thymidine Uptake (% Reduction @ 1 mM).
Setting [14] is: Table 3, read-out: Thymidine Uptake (% Reduction @ 1 mM).

pIC50: −log10 of the molar value. Like-named read-outs stand apart in the source and are kept apart here.

For the compound `O=C(O)c1cc(/N=N/c2ccc(S(=O)(=O)Nc3ccccn3)cc2)ccc1O` [Sulfasalazine, reference compound], the “Ave. (colon to 100 g body weight ratio)” value in assay [1] (PO 300 mg/kg × 7) worked out at 0.551. Also, in assay [1] (PO × 7), the “Inhibition (of net increase of colon to 100 g body weight ratio, relative to vehicle with DNBS)” value turned out to be 41% and the “Net Inc. (net increase of colon to 100 g body weight ratio)” value turned out to be 0.254.
With `CCNC(=O)NCCCN1CCN(c2cccc(C)c2C)CC1` [Compound 57, 1-{3′-[4-(2,3-xylyl)-piperazin-1-yl]-propyl}-3-ethyl urea], in assay [2] (setting [12]), the “effect on disease onset (ADSS)” value is listed as “had an effect on disease onset” and the “effect on maximum severity (ADSS)” value is “not on maximum severity”.
By pIC50 is commonly meant the negative decadic logarithm of the IC50, by convention in mol/L. Lower therefore signals a high IC50. Take `CCNC(=O)Nc1nc2cc(C)c(C)cc2[nH]1` [Compound 56, 1-(5,6-dimethyl-1H-benzoimidazol-2-yl)-3-ethyl urea]: the inhibition at 10000 µM in assay [3] (Conc. 10 mM) came to 82%; in assay [4] (Conc. 10 mM) it was 54%; in assay [5] (Conc. 10 mM), 52%; in assay [6] (Conc. 10 mM) it was 57%; in [7] (Conc. 10 mM) it was 63%; in assay [9] (Conc. 10 mM) it was 89%. Besides, the inhibition at 10000 µM in assay [10] (Conc. 10 mM) is 91%. The pIC50 in assay [3] is 5.41; in assay [4] it was 5.03; in assay [5] it was 5.02; in assay [6], 5.19; in [7], 5.24; in assay [9], 5.71. The pIC50 in [10] is 5.69. Further, the results for the “Inhibition (protection of mortality)” value in [8] (IP 5 mg/kg) and in [8] (IP 25 mg/kg) were 17% and 50%, respectively. The “Total Deaths” value in assay [8] (IP 5 mg/kg, N 6, 3-day period) is listed as 5; in assay [8] (IP 25 mg/kg, N 6, 3-day period) it was 3. Besides, in [8] (IP 25 mg/kg), the “response in septic shock model at the highest dose” value was “statistically significant response”. For the same compound, in [8] (IP 25 and 5 mg/kg), the “activity in septic shock model” value was “dose responsive activity”. Moreover, the entries for the “Ave. (colon to 100 g body weight ratio)” value in assay [1] (PO 5 mg/kg × 7) and in [1] (PO 25 mg/kg × 7) were 0.678 and 0.585, respectively. Also, the “Inhibition (of net increase of colon to 100 g body weight ratio, relative to vehicle with DNBS)” value in assay [1] (PO 5 mg/kg × 7) is given as 12%; in assay [1] (PO 25 mg/kg × 7) it was 34%. The figures for the “Net Inc. (net increase of colon to 100 g body weight ratio)” value in assay [1] (PO 5 mg/kg × 7) and in assay [1] (PO 25 mg/kg × 7) were 0.381 and 0.288, respectively. In assay [1] (PO 25 mg/kg), the “response in IBD model at the highest dose” value is “statistically significant response”. Moreover, in [1] (PO 25 and 5 mg/kg), the “activity in IBD model” value was “dose responsive activity”. The “effect on disease onset (ADSS)” value in assay [2] (24 mg/kg daily day 1 to 16, FIG. 2) is on record as “significant effect”.
In the case of `CC(=O)OCC(=O)[C@@]1(O)[C@H](C)C[C@H]2[C@@H]3CCC4=CC(=O)C=C[C@]4(C)[C@@]3(F)[C@@H](O)C[C@@]21C` [Dexamethasone-21-acetate, reference compound], the “Inhibition (protection of mortality)” value in assay [8] (1 mg/kg PO dose) came out at 100%. Besides, the “Total Deaths” value in assay [8] (1 mg/kg PO dose, N 4, 3-day period) was found to be 0.
`CCNC(=O)Nc1cc[nH]n1` [Compound 11]: the inhibition at 1000 µM in assay [11] (setting [13]) worked out at 35%.
`COc1ccccc1CNC(=O)NCCCN(C)C` [Compound 43]: in assay [11] (setting [14]), the inhibition at 1000 µM was 24%.
For the compound `CCNC(=O)Nn1cnnc1` [Compound 22], the inhibition at 1000 µM in assay [11] (setting [13]) was 19%.
Consider `CN(C)CCCNC(=O)Nc1nccc2ccccc12` [Compound 49], for which, in assay [11] (setting [14]), the inhibition at 1000 µM amounted to 36%.
In the case of `CCNC(=O)Nc1cccc(S(N)(=O)=O)c1` [Compound 14], the inhibition at 1000 µM in [11] (setting [13]) was found to be 18%.
In the case of `CCNC(=O)NCCCN1CCN(c2cc(C)ccc2C)CC1` [Compound 39], the inhibition at 1000 µM in assay [11] (Table 2, read-out: Thymidine Uptake (% Reduction @ 1 mM)) was 23%.
Turning to `CN(C)CCCNC(=O)NCc1csc2ccccc12` [Compound 54], the inhibition at 1000 µM in assay [11] (setting [14]) is 16%.
Turning to `CCNC(=O)NCC(C)(C)C` [Compound 25], the inhibition at 1000 µM in assay [11] (setting [13]) was found to be 60%.
The same measure, in the same setting: the figure for `CCNC(=O)Nc1c(F)c(F)c(C#N)c(F)c1F` [Compound 15] is 26%; for `CCNC(=O)NCc1ccco1` [Compound 2] it is 16%; for `CCNC(=O)Nc1nc2cc(C)c(C)cc2[nH]1` [Compound 19, 1-(5,6-dimethyl-1H-benzoimidazol-2-yl)-3-ethyl urea] it is 77%.
The same measure, in the same setting: the result for `CCNC(=O)Nc1cnccn1` [Compound 20] reads 55%.
With `CN(C)CCCNC(=O)NCCc1cccs1` [Compound 55], the inhibition at 1000 µM in [11] (setting [14]) was found to be 17%.
As for `CCNC(=O)NC1CCN(C(=O)OCC)CC1` [Compound 13], in assay [11] (setting [13]), the inhibition at 1000 µM turned out to be 35%.
